Laboratory results reported in PMC10366102, “Dose escalation and expansion cohorts in patients with advanced breast cancer in a Phase I study of the CDK7-inhibitor samuraciclib” (Nature Communications, 2023).
Like-named read-outs stand apart in the source and are kept apart here.

Test system: patients with advanced/metastatic solid tumors
Conditions: for TEAE: Upper respiratory tract infection / TEAE: Urinary tract infection: Module 1A
Source text: In this Phase I study (ClinicalTrials.gov: NCT03363893), male and female patients with locally advanced/metastatic solid tumors received samuraciclib in dose escalation cohorts (at least 3 and up to 6 evaluable patients permitted per dose cohort) to determine the MTD (see Supplementary Information for definition). An additional 6 to 12 male or female patients with breast cancer were enrolled to a paired biopsy cohort to evaluate the pharmacodynamic effects of samuraciclib in tumor tissue, initiated after determining the minimally biologically active dose, defined by a 25-30% reduction in signal for pPolII in lymphocytes after 21 days of dosing or more.
For inclusion in the paired biopsy cohort, only patients with breast cancer with lesions amenable to biopsy were recruited. A full list of inclusion/exclusion criteria is provided in the Supplementary Information.
Patients initially received an oral dose of samuraciclib at Cycle 0, Day 1 for PK evaluation, followed by a 48-hour interval then continuous daily dosing for 21 days (Cycle 1). Dosing continued in 21-day cycles until the patient no longer gained clinical benefit or had intolerable toxicity. At least 3 evaluable patients in a cohort had to complete Cycle 1 before any dose escalation was considered.
As Module 1A was a ‘first time in human’ safety study, initial efficacy was evaluated as a secondary endpoint using the DCR, defined as the percentage of patients with a complete response (CR), PR or stabilization of disease at first on treatment RECIST assessment. To allow for the evaluation of longer-term benefit, Module 1B-1 and Module 2A used the CBR as a secondary endpoint, defined as the percentage of patients with CR or PR or stabilization of disease for at least 24 weeks between enrollment and disease progression or death due to any cause. In addition, the ORR was assessed, defined as the percentage of patients who had at least 1 objective response (CR or PR) prior to any evidence of progression. […] Statistical analyses of PFS using the Kaplan-Meier method were performed on the ITT population - defined as all enrolled patients. AEs were summarized from the Safety Population - defined as all patients who received at least 1 dose of samuraciclib - using the MedDRA system organ class (SOC), preferred term (PT), and graded according to CTCAE V5.0 (Supplementary Information). […]
In the Module 1A dose escalation cohort, patients initially received 1 oral dose of samuraciclib at Cycle 0, Day 1. In the absence of a dose-limiting toxicity (DLT) and following a washout period of at least 48 hours, patients could then enter Cycle 1 and receive samuraciclib daily. In the continued absence of a DLT, each patient could continue to receive samuraciclib daily for a minimum of 21 days (Cycle 1) and could continue to receive additional 21-day cycles of treatment until they were no longer gaining […]
treatment visit was conducted (within 3 days after the last samuraciclib dose). An end of study visit was conducted 28 to 35 days after the last dose of samuraciclib.
At least 3 and up to 6 evaluable patients were required for each dose cohort. At least 3 evaluable patients in a cohort had to complete at least one 21-day cycle of dosing before a Safety Review Committee (SRC), composed of study site investigators and Sponsor medical personnel, could review and initiate the next cohort and dose escalation. Within the initial cohorts there was a staggered interval, with subsequent patients not being dosed until the first patient within each cohort had completed 7 days of samuraciclib monotherapy.
Patient enrolment in the dose escalation cohort proceeded according to a Bayesian model rolling 6 […]
2. If 1 patient experienced a DLT in a group of 3 or more evaluable patients, then the cohort was expanded to include 6 evaluable patients. […]
dose escalation occurred.
3. If at least 2 patients experienced a DLT in a cohort of up to 6 patients, irrespective of the number of […]

CC(C)c1cnn2c(NCc3ccccc3)cc(NC[C@H]3CCNC[C@@H]3O)nc12 [samuraciclib, Samuraciclib]
TEAE: Upper respiratory tract infection (120 mg OD N=6): 5 (83.3) participants (%)
TEAE: Urinary tract infection (120 mg OD N=6): 0 participants (%)
TEAE: Upper respiratory tract infection (240 mg OD N=12): 1 (8.3) participants (%)
TEAE: Urinary tract infection (240 mg OD N=12): 1 (8.3) participants (%)
TEAE: Upper respiratory tract infection (360 mg OD N=12): 1 (8.3) participants (%)
TEAE: Urinary tract infection (360 mg OD N=12): 1 (8.3) participants (%)
TEAE: Upper respiratory tract infection (480 mg OD N=6): 0 participants (%)
TEAE: Urinary tract infection (480 mg OD N=6): 1 (16.7) participants (%)
Lowest dose tested in humans that has demonstrated biological activity (OD): 120 mg
MBAD originally declared by the SRC (OD): 240 mg
Non-tolerated dose (OD in a fasted state): 480 mg
ALT increased; All AEs (both, human, in vivo): 8 (18.2) patients (%)
ALT increased; Grade ≥3 (both, human, in vivo): 1 (2.3) patients (%)
AST increased; All AEs (both, human, in vivo): 7 (15.9) patients (%)
AST increased; Grade ≥3 (both, human, in vivo): 0 patients (%)
Abdominal pain upper; All AEs (both, human, in vivo): 4 (9.1) patients (%)
Abdominal pain upper; Grade ≥3 (both, human, in vivo): 0 patients (%)
Abdominal pain; All AEs (both, human, in vivo): 12 (27.3) patients (%)
Abdominal pain; Grade ≥3 (both, human, in vivo): 0 patients (%)
Anemia; All AEs (both, human, in vivo): 10 (22.7) patients (%)
Anemia; Grade ≥3 (both, human, in vivo): 2 (4.5) patients (%)
Any treatment-emergent AE; All AEs (both, human, in vivo): 44 (100.0) patients (%)
Any treatment-emergent AE; Grade ≥3 (both, human, in vivo): 21 (47.7) patients (%)
Back pain; All AEs (both, human, in vivo): 6 (13.6) patients (%)
Back pain; Grade ≥3 (both, human, in vivo): 0 patients (%)
Constipation; All AEs (both, human, in vivo): 7 (15.9) patients (%)
Constipation; Grade ≥3 (both, human, in vivo): 0 patients (%)
Cough; All AEs (both, human, in vivo): 8 (18.2) patients (%)
Cough; Grade ≥3 (both, human, in vivo): 0 patients (%)
Decreased appetite; All AEs (both, human, in vivo): 9 (20.5) patients (%)
Decreased appetite; Grade ≥3 (both, human, in vivo): 1 (2.3) patients (%)
Diarrhea; All AEs (both, human, in vivo): 38 (86.4) patients (%)
Diarrhea; Grade ≥3 (both, human, in vivo): 2 (4.5) patients (%)
Dizziness; All AEs (both, human, in vivo): 2 (4.5) patients (%)
Dizziness; Grade ≥3 (both, human, in vivo): 0 patients (%)
Drug-related: ALT increased (both, human, in vivo): 3 (6.8) participants (%)
Drug-related: AST increased (both, human, in vivo): 4 (9.1) participants (%)
Drug-related: Abdominal pain (both, human, in vivo): 8 (18.2) participants (%)
Drug-related: Abdominal pain upper (both, human, in vivo): 2 (4.5) participants (%)
Drug-related: Anaemia (both, human, in vivo): 3 (6.8) participants (%)
Drug-related: Blood creatinine increased (both, human, in vivo): 3 (6.8) participants (%)
Drug-related: Decreased appetite (both, human, in vivo): 8 (18.2) participants (%)
Drug-related: Dehydration (both, human, in vivo): 2 (4.5) participants (%)
Drug-related: Diarrhoea (both, human, in vivo): 36 (81.8) participants (%)
Drug-related: Dry mouth (both, human, in vivo): 2 (4.5) participants (%)
Drug-related: Dyspepsia (both, human, in vivo): 2 (4.5) participants (%)
Drug-related: Dysphagia (both, human, in vivo): 2 (4.5) participants (%)
Drug-related: Fatigue (both, human, in vivo): 14 (31.8) participants (%)
Drug-related: Gastroesophageal reflux disease (both, human, in vivo): 3 (6.8) participants (%)
Drug-related: Mucosal inflammation (both, human, in vivo): 2 (4.5) participants (%)
Drug-related: Nausea (both, human, in vivo): 34 (77.3) participants (%)
Drug-related: Thrombocytopenia (both, human, in vivo): 3 (6.8) participants (%)
Drug-related: Vomiting (both, human, in vivo): 35 (79.5) participants (%)
Drug-related: Weight decreased (both, human, in vivo): 4 (9.1) participants (%)
Dysgeusia; All AEs (both, human, in vivo): 1 (2.3) patients (%)
Dysgeusia; Grade ≥3 (both, human, in vivo): 0 patients (%)
Dysphagia; All AEs (both, human, in vivo): 2 (4.5) patients (%)
Dysphagia; Grade ≥3 (both, human, in vivo): 0 patients (%)
Dyspnea; All AEs (both, human, in vivo): 6 (13.6) patients (%)
Dyspnea; Grade ≥3 (both, human, in vivo): 2 (4.5) patients (%)
Fatigue; All AEs (both, human, in vivo): 17 (38.6) patients (%)
Fatigue; Grade ≥3 (both, human, in vivo): 0 patients (%)
Grade ≥3: GGT increased (both, human, in vivo): 2 (4.5) participants (%)
Grade ≥3: Malignant neoplasm progression (both, human, in vivo): 2 (4.5) participants (%)
Grade ≥3: Pulmonary embolism (both, human, in vivo): 2 (4.5) participants (%)
Grade ≥3: Thrombocytopenia (both, human, in vivo): 2 (4.5) participants (%)
Headache; All AEs (both, human, in vivo): 4 (9.1) patients (%)
Headache; Grade ≥3 (both, human, in vivo): 0 patients (%)
Hyperglycemia; All AEs (both, human, in vivo): 1 (2.3) patients (%)
Hyperglycemia; Grade ≥3 (both, human, in vivo): 0 patients (%)
Hypocalcaemia; All AEs (both, human, in vivo): 2 (4.5) patients (%)
Hypocalcaemia; Grade ≥3 (both, human, in vivo): 0 patients (%)
Hypokalaemia; All AEs (both, human, in vivo): 0 patients (%)
Hypokalaemia; Grade ≥3 (both, human, in vivo): 0 patients (%)
Nausea; All AEs (both, human, in vivo): 34 (77.3) patients (%)
Nausea; Grade ≥3 (both, human, in vivo): 0 patients (%)
Participants with any drug-related TEAE (both, human, in vivo): 44 (100.0) participants (%)
Rash; All AEs (both, human, in vivo): 1 (2.3) patients (%)
Rash; Grade ≥3 (both, human, in vivo): 0 patients (%)
Stomatitis; All AEs (both, human, in vivo): 1 (2.3) patients (%)
Stomatitis; Grade ≥3 (both, human, in vivo): 0 patients (%)
Taste disorder; All AEs (both, human, in vivo): 0 patients (%)
Taste disorder; Grade ≥3 (both, human, in vivo): 0 patients (%)
Thrombocytopenia reported as Grade ≥3 (both, human, in vivo): 2 patients
Upper respiratory tract infection; All AEs (both, human, in vivo): 8 (18.2) patients (%)
Upper respiratory tract infection; Grade ≥3 (both, human, in vivo): 0 patients (%)
Urinary tract infection; All AEs (both, human, in vivo): 5 (11.4) patients (%)
Urinary tract infection; Grade ≥3 (both, human, in vivo): 0 patients (%)
Vomiting; All AEs (both, human, in vivo): 36 (81.8) patients (%)
Vomiting; Grade ≥3 (both, human, in vivo): 1 (2.3) patients (%)
Weight decreased; All AEs (both, human, in vivo): 4 (9.1) patients (%)
Weight decreased; Grade ≥3 (both, human, in vivo): 1 (2.3) patients (%)
DLT: Decreased appetite (both, human, in vivo, 21 days): 1 (3.0) patients (%)
DLT: Diarrhoea (both, human, in vivo, 21 days): 1 (3.0) patients (%)
DLT: Gastroesophageal reflux disease (both, human, in vivo, 21 days): 1 (3.0) patients (%)
DLT: Nausea (both, human, in vivo, 21 days): 1 (3.0) patients (%)
DLT: Oesophagitis (both, human, in vivo, 21 days): 1 (3.0) patients (%)
DLT: Stomatitis (both, human, in vivo, 21 days): 1 (3.0) patients (%)
DLT: Thrombocytopenia (both, human, in vivo, 21 days): 1 (3.0) patients (%)
DLT: Vomiting (both, human, in vivo, 21 days): 2 (6.1) patients (%)
DLT: Weight decreased (both, human, in vivo, 21 days): 1 (3.0) patients (%)
Patients with a dose-limiting toxicity (both, human, in vivo, 21 days): 3/6
Patients with any DLT (both, human, in vivo, 21 days): 6 (18.2) patients (%)
Drug-related: Oral pain (both, human, in vivo, po): 2 (4.5) participants (%)
Drop in platelet counts (during therapy, over the first 15 days then plateau, 240 mg OD and 360 mg OD): ~20%
Maximum tolerated dose (MTD) (once daily, monotherapy): 360 mg
